The structures appear in SMILES notation. pEC50: −log10 of the molar value.

For orientation: pEC50 means −log10 of the EC50, conventionally taken in molar units.

This assay deals with T1, S1P5 receptors (Homo sapiens, UniProt Q9H228).
T1 construct: expressed in transfected cells; host or cells: CHO cells (membranes)
T1 sequence (Q9H228 whole entry): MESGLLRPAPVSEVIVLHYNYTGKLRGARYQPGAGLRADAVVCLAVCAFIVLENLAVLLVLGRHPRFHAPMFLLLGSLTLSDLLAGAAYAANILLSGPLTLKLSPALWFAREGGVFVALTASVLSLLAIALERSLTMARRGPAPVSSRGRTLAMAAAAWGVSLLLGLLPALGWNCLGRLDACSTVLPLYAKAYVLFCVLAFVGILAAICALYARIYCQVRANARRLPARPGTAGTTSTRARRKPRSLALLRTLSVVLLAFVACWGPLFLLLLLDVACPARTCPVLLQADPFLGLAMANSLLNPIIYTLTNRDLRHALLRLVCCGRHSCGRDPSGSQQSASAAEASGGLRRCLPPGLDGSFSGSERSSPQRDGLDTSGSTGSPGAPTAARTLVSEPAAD
Kind of assay: [35S]-GTPγS binding assay with CHO-S1P5 receptor membranes. Format: biochemical. The following applies: membranes of CHO cells expressing recombinant S1P5 receptors; measure of S1P5 agonism. A digest of the protocol: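 Membranes from CHO cells expressing recombinant S1P5 were preincubated for 30 min at RT with compound, GDP and WGA SPA beads. The buffer was 20 mM HEPES, 10 mM MgCl2, 100 mM NaCl, 1 mM EDTA, 0.1% fatty-acid-free BSA and 30 μg/mL saponin, pH 7.4. [35S]GTPγS (200 pM final) was added for 40 min, and bound radioactivity read as agonism; S1P was the control.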
For orientation: GTPγS resists hydrolysis and so accumulates on activated G proteins.
As for `Cc1cc(CN2CCC(C(=O)O)CC2)cnc1C1CN(c2c(Cl)cccc2Cl)C1` [Compound 79, 1-((6-(1-(2,6-dichlorophenyl)azetidin-3-yl)-5-methylpyridin-3-yl)methyl)piperidine-4-carboxylic acid], the pEC50 was 6.00 to 7.00.
As to `Cc1cc(C2CN(c3c(Cl)cccc3Cl)C2)cc(Cl)c1CN1CCC(C(=O)O)CC1` [Compound 51, 1-(2-chloro-4-(1-(2,6-dichlorophenyl)azetidin-3-yl)-6-methylbenzyl)-piperidine-4-carboxylic acid], the negative-log EC50 (pEC50) is not below 8.00.
Turning to `O=C(O)C1CCN(C2CCc3cc(C4CN(c5c(Cl)cccc5Cl)C4)ccc32)CC1` (single isomer, unassigned) [Compound 1a, 1-(5-(1-(2,6-dichlorophenyl)azetidin-3-yl)-2,3-dihydro-1H-inden-1-yl)piperidine-4-carboxylic acid], the negative-log EC50 (pEC50) was not below 8.00.
The same measure for `Cc1cc(C2CN(c3c(Cl)cccc3Cl)C2)c(C)cc1CN1CCC(C(=O)O)CC1` [Compound 19, 1-(4-(1-(2,6-dichlorophenyl)azetidin-3-yl)-2,5-dimethylbenzyl)piperidine-4-carboxylic acid]: not below 8.00; for `Cc1cc(C2CN(c3c(Cl)cccc3Cl)C2)cc(C)c1CN1CC[C@@H](C(=O)O)C1` [Compound 60, (R)-1-(4-(1-(2,6-dichlorophenyl)azetidin-3-yl)-2,6-dimethylbenzyl) pyrrolidine-3-carboxylic acid]: not below 8.00.
The same measure for `O=C(O)C1CCN(C2CCc3cc(N4CC(c5c(F)cccc5F)C4)ccc32)CC1` (single isomer, unassigned) [Compound 9a, 1-(5-(3-(2,6-difluorophenyl)azetidin-1-yl)-2,3-dihydro-1H-inden-1-yl)piperidine-4-carboxylic acid]: not below 8.00; for `O=C(O)C1CCN(Cc2ccc(C3CN(c4c(Cl)cccc4Cl)C3)c3ccccc23)CC1` [Compound 54, 1-((4-(1-(2,6-dichlorophenyl)azetidin-3-yl)naphthalen-1-yl)methyl)-piperidine-4-carboxylic acid]: not below 8.00.
The same measure for `O=C(O)C1CCN(Cc2ccc(C3CN(c4c(F)cccc4F)C3)cc2)CC1` [Compound 14, 1-(4-(1-(2,6-difluorophenyl)azetidin-3-yl)benzyl)piperidine-4-carboxylic acid]: 6.00 to 7.00.
For `Cc1cc(N2CC(c3c(Cl)cccc3Cl)C2)c(C)cc1CN1CCC(C(=O)O)CC1` [Compound 30, 1-(4-(3-(2,6-dichlorophenyl)azetidin-1-yl)-2,5-dimethylbenzyl)piperidine-4-carboxylic acid], the negative-log EC50 (pEC50) is not below 8.00.
The same measure for `Cc1cc(C2CN(c3cccc(F)c3)C2)cc(C)c1CN1CCC(C(=O)O)CC1` [Compound 47, 1-(4-(1-(3-fluorophenyl)azetidin-3-yl)-2,6-dimethylbenzyl)piperidine-4-carboxylic acid]: 6.00 to 7.00.
The same measure for `Cc1cc(C2CN(c3ccccc3C3CC3)C2)cc(C)c1CN1CCC(C(=O)O)CC1` [Compound 70, 1-(4-(1-(2-cyclopropylphenyl)azetidin-3-yl)-2,6-dimethylbenzyl)piperidine-4-carboxylic acid]: 7.00 to 8.00; for `Cc1cc(C2CN(c3c(C)cccc3C(F)(F)F)C2)cc(C)c1CN1CCC(C(=O)O)CC1` [Compound 73, 1-(2,6-dimethyl-4-(1-(2-methyl-6-(trifluoromethyl)phenyl)azetidin-3-yl)-benzyl)piperidine-4-carboxylic acid]: not below 8.00; for `Cc1cc(C2CN(c3c(Cl)cccc3Cl)C2)cc(C)c1CN1CCC(C(=O)O)CC1(C)C` (centres unmarked) [Compound 65, 1-(4-(1-(2,6-dichlorophenyl)azetidin-3-yl)-2,6-dimethylbenzyl)-2,2-dimethylpiperidine-4-carboxylic acid]: 7.00 to 8.00.
Consider `Cc1cc(C2CN(c3c(Cl)cccc3Cl)C2)ccc1C(C)N1CCC(C(=O)O)CC1` (single isomer, unassigned) [Compound 16a, 1-(1-(4-(1-(2,6-dichlorophenyl)azetidin-3-yl)-2-methylphenyl)ethyl)piperidine-4-carboxylic acid], for which the pEC50 is 7.00 to 8.00.

Source of the values: US12552771B2, “Carboxylic acid containing azetidinyl compounds for the treatment of neurodegenerative diseases” (Celgene Corporation, priority 2021, dated 2026).
